For one compound, IC50 and EC50 results are on record in ChEMBL document CHEMBL3297653, “2-Amino-7-substituted benzoxazole analogs as potent RSK2 inhibitors” (Bioorg Med Chem Lett, 2014).

The target of assay [1] is Tyrosine-protein kinase JAK2 (Homo sapiens, UniProt O60674). As to the kind of experiment: Inhibition of JAK2 (unknown origin).
A further assay addresses T1, Aurora kinase A (Homo sapiens, UniProt O14965).
T1 sequence (O14965 whole entry): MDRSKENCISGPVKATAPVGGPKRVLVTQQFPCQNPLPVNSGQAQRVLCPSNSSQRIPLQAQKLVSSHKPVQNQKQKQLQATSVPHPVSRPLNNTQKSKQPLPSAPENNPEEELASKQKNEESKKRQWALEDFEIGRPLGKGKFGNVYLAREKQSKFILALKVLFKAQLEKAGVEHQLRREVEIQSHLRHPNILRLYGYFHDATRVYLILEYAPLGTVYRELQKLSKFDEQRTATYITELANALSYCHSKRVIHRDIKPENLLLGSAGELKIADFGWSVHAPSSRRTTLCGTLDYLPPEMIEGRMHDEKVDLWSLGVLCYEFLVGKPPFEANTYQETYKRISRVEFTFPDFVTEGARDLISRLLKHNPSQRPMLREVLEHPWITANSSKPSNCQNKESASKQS
Briefly: Inhibition of aurora A (unknown origin).

The next assay concerns MDA-MB-231. Briefly: Cytotoxicity against human MDA-MB-231 cells assessed as growth inhibition after 5 days by CellTitre-glo assay. It counts as functional, cell-based. The settings on record: MDA-MB-231, 120 h.

Each structure is given as a SMILES string. pEC50, pIC50: −log10 of the molar value.

Sequence of Tyrosine-protein kinase JAK2 (O60674 whole entry): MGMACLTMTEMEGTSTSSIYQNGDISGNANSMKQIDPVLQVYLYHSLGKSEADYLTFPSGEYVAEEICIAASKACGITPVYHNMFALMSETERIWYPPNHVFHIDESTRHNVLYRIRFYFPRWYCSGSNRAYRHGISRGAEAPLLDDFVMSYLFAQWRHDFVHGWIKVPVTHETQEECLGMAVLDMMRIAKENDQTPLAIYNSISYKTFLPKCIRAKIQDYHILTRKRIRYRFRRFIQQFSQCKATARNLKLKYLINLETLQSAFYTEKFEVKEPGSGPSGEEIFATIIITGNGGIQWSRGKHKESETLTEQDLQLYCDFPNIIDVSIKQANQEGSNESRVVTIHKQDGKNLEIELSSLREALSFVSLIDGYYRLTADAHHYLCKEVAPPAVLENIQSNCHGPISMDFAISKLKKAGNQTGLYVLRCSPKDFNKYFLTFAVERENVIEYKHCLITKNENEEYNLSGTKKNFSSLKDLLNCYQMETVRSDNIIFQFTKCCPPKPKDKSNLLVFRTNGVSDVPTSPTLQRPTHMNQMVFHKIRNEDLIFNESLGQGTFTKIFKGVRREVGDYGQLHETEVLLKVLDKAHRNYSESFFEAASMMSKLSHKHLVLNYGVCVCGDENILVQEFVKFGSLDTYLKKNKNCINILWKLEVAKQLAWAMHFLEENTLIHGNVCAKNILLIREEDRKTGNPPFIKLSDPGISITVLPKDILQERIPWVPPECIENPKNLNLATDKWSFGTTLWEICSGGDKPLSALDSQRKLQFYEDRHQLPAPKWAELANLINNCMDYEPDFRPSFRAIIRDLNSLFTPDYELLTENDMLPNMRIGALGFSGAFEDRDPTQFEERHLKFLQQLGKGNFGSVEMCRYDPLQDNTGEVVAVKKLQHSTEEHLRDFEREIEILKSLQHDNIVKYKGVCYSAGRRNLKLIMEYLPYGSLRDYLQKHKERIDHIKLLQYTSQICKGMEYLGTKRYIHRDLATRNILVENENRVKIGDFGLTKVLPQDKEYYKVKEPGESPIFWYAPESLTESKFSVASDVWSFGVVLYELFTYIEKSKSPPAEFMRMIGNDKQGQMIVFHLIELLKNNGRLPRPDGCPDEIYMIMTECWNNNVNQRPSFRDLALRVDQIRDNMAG

What is called pIC50 is −log10 of the IC50, conventionally taken in molar units. Higher therefore signals a low IC50. A word on the pEC50: it is the EC50 on a negative log10 scale, so that one unit is a factor of ten. Turning to `COc1cc(Nc2nc3cccc(-c4cccc5[nH]cnc45)c3o2)cc(OC)c1OC`, the pIC50 in assay [1] is 6.34; at Aurora kinase A, 6.22. Further, the pEC50 with MDA-MB-231 was 6.24.
